# Experimental data from patent US20120258976A1, “CRYSTALLINE PYRROLO[2,3-D]PYRIMIDINE COMPOUNDS” (Pfizer Inc., priority 2011, published 2012).
# Test: Tofacitinib stability in PEG-based ointment formulations after storage at 40° C.
# Assay type: physicochemical
# Description: Topical formulations contain 3-((3R,4R)-4-methyl-3-[methyl-(7H-pyrrolo[2,3-d]pyrimidin-4-yl)amino]-piperidin-1-yl)-3-oxopropionitrile in therapeutically effective amounts that can be given in daily or twice daily doses to patients in need. These amounts range from about 0.1% to about 5.0% (w/v), more preferably, from about 0.1% to about 3.0%, more preferably still, from about 0.5% to about 2.3%, and, most preferably, about 2.0% (w/v). Among other excipients which enhance the stability of these formulations include aldehyde scavengers, such as glycerine and propylene glycol, and antioxidants, such as butyl hydroxyanisole (BHA), butyl hydroxytoluene (BHT), propyl gallate, ascorbic acid (Vitamin C), polyphenols, tocopherols (Vitamin E), and their derivatives. Preferably, PEG-based ointment formulations containing at least 30% polyethylene glycol, tofacifinib and one or more penetration enhancers and additional pharmaceutically acceptable excipients forming a stable formulation such that the level of total degradants is no more than 7% when the product is stored at 40° C. for 4 weeks. More preferably, addition of aldehyde scavengers and antioxidants into formulations Ointment 1 (A) and Ointment 2 (C) stabilized the polyethylene glycol containing ointment formulations such that the level of total degradants is no more than 5% when the product is stored at 40° C. for 4 weeks.
structure (smiles),measurement,value
"C[C@@H]1CCN(C(=O)CC#N)C[C@@H]1N(C)c1ncnc2[nH]ccc12 [tofacitinib, 3-((3R,4R)-4-Methyl-3-[methyl-(7H-pyrrolo[2,3-d]pyrimidin-4-yl)-amino]-piperidin-1-yl)-3-oxopropionitrile]",Stability of tofacitinib in the presence of polyethylene glycol (PEG),poor stability
